Read-outs that look alike come from different tables or passages of the source.
Experiments:
5,6,7triFW-LmrR = 5,6,7triFW-LmrR (Lactococcus lactis subsp. cremoris, UniProt A2RI36); experiment: SPR binding of drugs to immobilized 5,6,7triFW-LmrR; settings: for Kd: Binding affinity, Kd, 5,6,7triFW LmrR, SPR, mean ± SD n = 3
Excerpt: (§1) LmrR binds different drugs including Dau and RBF.[19],[20] To investigate the importance of π–π interactions for drug binding, the electron density in the π electron cloud of W96 was modulated by progressive fluorination of the W96 indole side chain. The binding affinities of LmrR for Dau and RBF decreased upon increasing degrees of fluorination of W96 (Table 2, Figure S3). […] Dau behaved less extreme, with the kd […] 6-fold (Table 2).
(§2) The thermodynamics of the LmrR–Dau interaction was recently reported to be mostly entropy driven.[21] To investigate this point in more detail the temperature dependence of the LmrR–Dau interaction was studied by surface plasmon resonance (SPR) experiments at 10 and 25 °C. […] The average ΔΔG from 6 LmrR variants is around 0.1 kJ/mol. These values imply that the temperature effects on the ΔGs are negligible, which would be in line with a low contribution of entropic factors to the Dau–LmrR interaction.
(§3) The SPR assays can also inform on the kinetics of the LmrR-drug interaction, but for the assays at 25 °C, the kon and koff rates could not be analyzed properly, because the rates were too fast at those conditions. The koff rates increase when the electron density of the π-electron cloud in W96 decreases, in support of a sizable contribution of the π–π stacking interaction to the drug binding affinity. […]
(§4) MALDI-TOF. A purified LmrR solution (~6 mg/ml) was diluted to ~0.5 mg/ml with 100 mM NH4HCO3, and incubated with 5 µg/ml of trypsin during 2 h at 37 °C. 1 µl of digested LmrR was spotted, dried and quickly washed with 1 µl MilliQ water twice. Subsequently, 1 µl of matrix solution (10 mg/ml α- cyano-4-hydroxycinnamate (LaserBio Labs) in 50 % acetonitrile/0.1 % (v/v) trifluoroacetic acid) was spotted on top of the washed sample. Spots were measured using a Voyager DE-PRO MALDI-TOF (time of flight) instrument (Applied Biosystems). The incorporation efficiency of Trp analog was calculated after measuring the peak areas of the peptide conta ining either Trp or Trp analog.
(§5) Binding assays - surface plasmon resonance (SPR). LmrR and mutants were immobilized on a CM5 sensor chip and binding of drugs was monitored using a BIACORE3000 system. The binding responses of Dau and RBF to LmrR were measured in triplicate at both 25 °C and 10 °C, in HBS-EP running buffer (10 mM HEPES, pH 7.4, 150 mM NaCl, 50 µM EDTA, and 0.005% surfactant P-20). The binding responses were corrected by subtracting the response measured in the control lane, to which a […]
(§6) This protein, 4-oxalocrotonate tautomerase mutant Ala33Asp15 was a gift of J.-Y. van der Meer. Steady state responses after injection of serial dilutions of Dau and RBF were used for the determination of the dissociation constant (K d) values, using the BIAevaluation v.4.1 (GE Healthcare ) and GraphPad Prism v5.00 software . The One site-Total equation from GraphPad Prism software was used for the calculation of Kd as follows:
(§7) Y=Bmax*X/(Kd+X) + NS*X + Background . Equilibrium response Y is obtained at ligand concentration X.
(§8) Bmax represents the maximum specific binding response to the same sensorchip. NS is the slope of nonspecific binding in Y units divided by X units. […]
(§9) without addition of ligand. Binding free energies, ΔGs, were derived from the dissociation constant K d according to […].
(§10) Where possible, rate constants were determined using the BIAevaluation v.4.1 (GE Healthcare ) software. k off values were determined by fitting a 1:1 (Langmuir ) binding model . Each koff value is the average of 3 determinations.

LmrR labeled with 5MeW = LmrR labeled with 5MeW (Lactococcus lactis subsp. cremoris, UniProt A2RI36); experiment: SPR binding of drugs to immobilized LmrR labeled with 5MeW; settings: for Kd: Binding affinity, SPR, mean ± SD n = 3
Excerpt: as §1, §2, §3, §4, §5, §6, §7, §8, §9, §10

4,5,6,7tetraFW-LmrR = 4,5,6,7tetraFW-LmrR (Lactococcus lactis subsp. cremoris, UniProt A2RI36); experiment: biochemical; type: binding; settings: for Fold decrease of LmrR binding affinity, W-LmrR to 4,5,6,7tetraFW-LmrR: equals enhancement of affinity by π–π stacking; for Kd: Binding affinity, Kd, 4,5,6,7tetraFW LmrR, SPR, mean ± SD n = 3
Excerpt: LmrR binds different drugs including Dau and RBF.[19],[20] To investigate the importance of π–π interactions for drug binding, the electron density in the π electron cloud of W96 was modulated by progressive fluorination of the W96 indole side chain.
The thermodynamics of the LmrR–Dau interaction was recently reported to be mostly entropy driven.[21] To investigate this point in more detail the temperature dependence of the LmrR–Dau interaction was studied by surface plasmon resonance (SPR) experiments at 10 and 25 °C. […]
as §4, §5
This protein, 4-oxalocrotonate tautomerase mutant Ala33Asp15 was a gift of J.-Y. van der Meer. Steady state responses after injection

5FW-LmrR = 5FW-LmrR (Lactococcus lactis subsp. cremoris, UniProt A2RI36); experiment: SPR binding of drugs to immobilized 5FW-LmrR; settings: for Kd: Binding affinity, SPR, mean ± SD n = 3
Excerpt: as §1, §2, §3, §4, §5, §6, §7, §8, §9, §10

W-LmrR = W-LmrR (Lactococcus lactis subsp. cremoris, UniProt A2RI36); experiment: SPR binding of drugs to immobilized wild type LmrR (W-LmrR); settings: for Contribution of the π–π interactions to the total binding energy: extrapolation with 4,5,6,7tetraFW as baseline; for Kd: W (wild type) LmrR, SPR, mean ± SD n = 3
Excerpt: as §1, §2, §3, §4, §5, §6, §7, §8, §9, §10

5,6diFW-LmrR = 5,6diFW-LmrR (Lactococcus lactis subsp. cremoris, UniProt A2RI36); experiment: SPR binding of drugs to immobilized 5,6diFW-LmrR; settings: for Kd: Binding affinity, Kd, 5,6diFW LmrR, SPR, mean ± SD n = 3
Excerpt: as §1, §2, §3, §4, §5, §6, §7, §8, §9, §10

[1] = 5,6,7triFW LmrR, 25 °C, derived from Kd
[2] = 5MeW LmrR, 25 °C, derived from Kd
[3] = 4,5,6,7tetraFW LmrR, 25 °C, derived from Kd
[4] = 5FW LmrR, 25 °C, derived from Kd
[5] = 5,6diFW LmrR, 25 °C, derived from Kd

W-LmrR, sequence (A2RI36 entry or part of it): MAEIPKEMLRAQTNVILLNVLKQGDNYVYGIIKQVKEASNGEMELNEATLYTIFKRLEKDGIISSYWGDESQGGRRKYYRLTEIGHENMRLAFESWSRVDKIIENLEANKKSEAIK
5FW-LmrR, sequence (A2RI36 entry or part of it): as above
LmrR labeled with 5MeW, sequence (A2RI36 entry or part of it): as above
5,6diFW-LmrR, sequence (A2RI36 entry or part of it): as above
4,5,6,7tetraFW-LmrR, sequence (A2RI36 entry or part of it): as above
5,6,7triFW-LmrR, sequence (A2RI36 entry or part of it): as above

For `Cc1cc2nc3c(=O)[nH]c(=O)nc-3n(C[C@H](O)[C@H](O)[C@H](O)CO)c2cc1C` [RBF, riboflavin], the “Free energy of ligand binding ΔG25 °C” value (5,6,7triFW-LmrR; [1]) was “–29.0 kJ/mol”, the Kd (5,6,7triFW-LmrR; 25 °C) was 8370 ± 200 nM and the “Free energy of ligand binding ΔG25 °C” value (LmrR labeled with 5MeW; [2]) was “–36.6 kJ/mol”. For the same molecule, the Kd (LmrR labeled with 5MeW; 5MeW LmrR, 25 °C) was 380 ± 8 nM, the “Free energy of ligand binding ΔG25 °C” value (4,5,6,7tetraFW-LmrR; [3]) was “–25.7 kJ/mol” and the “Fold decrease of LmrR binding affinity, W-LmrR to 4,5,6,7tetraFW-LmrR” value (4,5,6,7tetraFW-LmrR; 25 °C) was 70 fold. The Kd (4,5,6,7tetraFW-LmrR; 25 °C) was 33400 ± 16000 nM, the “Free energy of ligand binding ΔG25 °C” value (5FW-LmrR; [4]) was “–34.3 kJ/mol” and the Kd (5FW-LmrR; 5FW LmrR, 25 °C) was 970 ± 50 nM. The “Contribution of the π–π interactions as share of the total binding energy” value (W-LmrR; 25 °C) was 29%, the “Contribution of the π–π interactions to the total binding energy” value (W-LmrR; 25 °C) was -2.51 kcal/mol and the Kd (W-LmrR; 25 °C, read-out: Binding affinity, Kd) was 460 ± 50 nM. For the same molecule, the “Free energy of ligand binding ΔG25 °C” value (W-LmrR; W LmrR, 25 °C, derived from Kd) was “–36.2 kJ/mol”, the “Free energy of ligand binding ΔG25 °C” value (5,6diFW-LmrR; [5]) was “–30.2 kJ/mol” and the Kd (5,6diFW-LmrR; 25 °C) was 4990 ± 60 nM.
With `COc1cccc2c1C(=O)c1c(O)c3c(c(O)c1C2=O)C[C@@](O)(C(C)=O)C[C@@H]3O[C@H]1C[C@H](N)[C@H](O)[C@H](C)O1` [Dau, Daunomycin] the koff (5,6,7triFW-LmrR) was 0.8 ± 0.1 s⁻¹, the “ΔΔG, ΔG10 °C – ΔG25 °C” value (5,6,7triFW-LmrR; 5,6,7triFW LmrR) was “–0.4 kJ/mol” and the “Free energy of ligand binding ΔG10 °C” value (5,6,7triFW-LmrR; 5,6,7triFW LmrR, 10 °C, derived from Kd) was “–33.7 kJ/mol”. For the same molecule, the “Free energy of ligand binding ΔG25 °C” value (5,6,7triFW-LmrR; [1]) was “–33.3 kJ/mol”, the Kd (5,6,7triFW-LmrR; 10 °C) was 590 ± 60 nM and the Kd (5,6,7triFW-LmrR; 25 °C) was 1440 ± 100 nM. For the same molecule, the koff (LmrR labeled with 5MeW) was 0.2 ± 0.04 s⁻¹, the “ΔΔG, ΔG10 °C – ΔG25 °C” value (LmrR labeled with 5MeW; 5MeW LmrR) was “–1.1 kJ/mol” and the “Free energy of ligand binding ΔG10 °C” value (LmrR labeled with 5MeW; 5MeW LmrR, 10 °C, derived from Kd) was “–37.8 kJ/mol”. The “Free energy of ligand binding ΔG25 °C” value (LmrR labeled with 5MeW; [2]) was “–36.7 kJ/mol”, the Kd (LmrR labeled with 5MeW; 5MeW LmrR, 10 °C) was 104 ± 5 nM and the Kd (LmrR labeled with 5MeW; 5MeW LmrR, 25 °C) was 370 ± 30 nM. The koff (4,5,6,7tetraFW-LmrR) was 1.5 ± 0.09 s⁻¹, the “ΔΔG, ΔG10 °C – ΔG25 °C” value (4,5,6,7tetraFW-LmrR; 4,5,6,7tetraFW LmrR) was 0.072 kcal/mol and the “Free energy of ligand binding ΔG10 °C” value (4,5,6,7tetraFW-LmrR; 4,5,6,7tetraFW LmrR, 10 °C, derived from Kd) was “–31.3 kJ/mol”. The “Free energy of ligand binding ΔG25 °C” value (4,5,6,7tetraFW-LmrR; [3]) was “–31.6 kJ/mol”, the “Fold decrease of LmrR binding affinity, W-LmrR to 4,5,6,7tetraFW-LmrR” value (4,5,6,7tetraFW-LmrR; 25 °C) was 6 fold and the Kd (4,5,6,7tetraFW-LmrR; 10 °C) was 1680 ± 70 nM. The Kd (4,5,6,7tetraFW-LmrR; 25 °C) was 2880 ± 500 nM, the koff (5FW-LmrR) was 0.6 ± 0.001 s⁻¹ and the “ΔΔG, ΔG10 °C – ΔG25 °C” value (5FW-LmrR; 5FW LmrR) was 0.22 kcal/mol. The “Free energy of ligand binding ΔG10 °C” value (5FW-LmrR; 5FW LmrR, 10 °C, derived from Kd) was “–35.5 kJ/mol”, the “Free energy of ligand binding ΔG25 °C” value (5FW-LmrR; [4]) was “–36.4 kJ/mol” and the Kd (5FW-LmrR; 5FW LmrR, 10 °C) was 280 ± 40 nM. For the same molecule, the Kd (5FW-LmrR; 5FW LmrR, 25 °C) was 430 ± 80 nM, the koff (W-LmrR) was 0.4 ± 0.07 s⁻¹ and the “Contribution of the π–π interactions as share of the total binding energy” value (W-LmrR; 25 °C) was 13%. For the same molecule, the “Contribution of the π–π interactions to the total binding energy” value (W-LmrR; 25 °C) was -1.15 kcal/mol, the Kd (W-LmrR; Binding affinity, Kd, 10 °C) was 315 ± 40 nM and the Kd (W-LmrR; Binding affinity, Kd, 25 °C) was 450 ± 50 nM. The “ΔΔG, ΔG10 °C – ΔG25 °C” value (W-LmrR; W LmrR) was 0.22 kcal/mol, the “Free energy of ligand binding ΔG10 °C” value (W-LmrR; W LmrR, 10 °C, derived from Kd) was “–35.2 kJ/mol” and the “Free energy of ligand binding ΔG25 °C” value (W-LmrR; W LmrR, 25 °C, derived from Kd) was “–36.2 kJ/mol”. For the same molecule, the “ΔΔG, ΔG10 °C – ΔG25 °C” value (5,6diFW-LmrR; 5,6diFW LmrR) was 0.048 kcal/mol, the “Free energy of ligand binding ΔG10 °C” value (5,6diFW-LmrR; 5,6diFW LmrR, 10 °C, derived from Kd) was “–33.9 kJ/mol” and the “Free energy of ligand binding ΔG25 °C” value (5,6diFW-LmrR; [5]) was “–34.1 kJ/mol”. The Kd (5,6diFW-LmrR; 10 °C) was 560 ± 50 nM and the Kd (5,6diFW-LmrR; 25 °C) was 1050 ± 60 nM.
